Source: PubChem BioAssay (NCI)
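Interpolation was linear, between the two tested concentrations surrounding the appropriate level; five concentrations were tested over 48 hours in 96-well plates. TGI marks complete inhibition of growth.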

Columns and labels:
Assay in all cases: DTP human tumour cell line panel, 48 h
KM12 colon = test system: KM12 colon
SF-539 CNS = test system: SF-539 CNS
DMS 114 small cell lung = test system: DMS 114 small cell lung
SK-MEL-28 melanoma = test system: SK-MEL-28 melanoma
NCI-H460 lung = test system: NCI-H460 lung
786-0 renal = test system: 786-0 renal
SW-620 colon = test system: SW-620 colon
HL-60(TB) leukemia = test system: HL-60(TB) leukemia
HCT-116 colon = test system: HCT-116 colon
SNB-78 CNS = test system: SNB-78 CNS
LOX IMVI melanoma = test system: LOX IMVI melanoma
SF-295 CNS = test system: SF-295 CNS
TK-10 renal = test system: TK-10 renal
NCI-H23 lung = test system: NCI-H23 lung
MOLT-4 leukemia = test system: MOLT-4 leukemia
SK-OV-3 ovarian = test system: SK-OV-3 ovarian
OVCAR-3 ovarian = test system: OVCAR-3 ovarian
M19-MEL melanoma = test system: M19-MEL melanoma
SR leukemia = test system: SR leukemia
DLD-1 colon = test system: DLD-1 colon
SK-MEL-5 melanoma = test system: SK-MEL-5 melanoma
NCI-H226 lung = test system: NCI-H226 lung
NCI-H522 lung = test system: NCI-H522 lung
SNB-75 CNS = test system: SNB-75 CNS
ACHN renal = test system: ACHN renal
SK-MEL-2 melanoma = test system: SK-MEL-2 melanoma
IGROV1 ovarian = test system: IGROV1 ovarian
M14 melanoma = test system: M14 melanoma
HT29 colon = test system: HT29 colon
U251 CNS = test system: U251 CNS
OVCAR-4 ovarian = test system: OVCAR-4 ovarian
KM20L2 colon = test system: KM20L2 colon
HCC-2998 colon = test system: HCC-2998 colon
COLO 205 colon = test system: COLO 205 colon
DMS 273 small cell lung = test system: DMS 273 small cell lung
HOP-62 NSCLC = test system: HOP-62 NSCLC
UACC-257 melanoma = test system: UACC-257 melanoma
SF-268 CNS = test system: SF-268 CNS
SN12C renal = test system: SN12C renal
HOP-92 NSCLC = test system: HOP-92 NSCLC
RXF 393 renal = test system: RXF 393 renal
HCT-15 colon = test system: HCT-15 colon
UACC-62 melanoma = test system: UACC-62 melanoma
RPMI-8226 leukemia = test system: RPMI-8226 leukemia
A498 renal = test system: A498 renal
OVCAR-5 ovarian = test system: OVCAR-5 ovarian
LXFL 529 NSCLC = test system: LXFL 529 NSCLC
CCRF-CEM leukemia = test system: CCRF-CEM leukemia
A549 NSCLC = test system: A549 NSCLC
CAKI-1 renal = test system: CAKI-1 renal
MALME-3M melanoma = test system: MALME-3M melanoma
OVCAR-8 ovarian = test system: OVCAR-8 ovarian
K-562 leukemia = test system: K-562 leukemia
UO-31 renal = test system: UO-31 renal
SNB-19 CNS = test system: SNB-19 CNS
EKVX NSCLC = test system: EKVX NSCLC
XF 498 CNS = test system: XF 498 CNS

Measured: TGI

COc1ccc(-c2cc(=O)c3c(OC)cccc3o2)c(OC)c1OC
74.4 µM: SNB-75 CNS
not listed: UO-31 renal | SNB-19 CNS | EKVX NSCLC | XF 498 CNS
> 100 µM: all other assays above

Cc1ccc(C(=O)Nc2ccccc2)cc1N=NN(C)C
44 µM: 786-0 renal
not listed: DMS 114 small cell lung | HL-60(TB) leukemia | MOLT-4 leukemia | SK-OV-3 ovarian | SR leukemia | NCI-H226 lung | SNB-75 CNS | KM20L2 colon | COLO 205 colon | RXF 393 renal | RPMI-8226 leukemia | A498 renal | OVCAR-5 ovarian | CCRF-CEM leukemia | MALME-3M melanoma | K-562 leukemia | XF 498 CNS
> 100 µM: all other assays above

O=C(Cn1ccnc1[N+](=O)[O-])c1ccccc1
not listed: DMS 114 small cell lung | HCT-116 colon | SNB-78 CNS | SR leukemia | U251 CNS
> 100 µM: all other assays above
